Drawing on patent US20230265151A1, “GIP/GLP1 CO-AGONIST COMPOUNDS” (priority 2020, published 2023), this text covers EC50 and Emax for four compounds.

The structures appear in SMILES notation. Read-outs that look alike come from different tables or passages of the source. A value given as a limit tells only on which side of the number the result lay.

Common to all, as to assay type: cell-based
For assay [1], the target named is hGLP-1R (Homo sapiens, UniProt P43220). Description: Functional cAMP formation (HTRF) in HEK-293 clonal cells expressing hGLP-1R, 0.1% bovine casein, without or with 1.0% human serum albumin. Particulars: 37° C. More on the design: expressed in transfected cells. Summed up: (§1)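 Readings of the HTRF 665/620 nm ratio, which falls as cAMP rises, were converted to nM cAMP using a standard curve after 30 min peptide exposure at 37° C.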
A general note: Changes in cAMP serve as a functional read-out for many G protein-coupled receptors.

In assay [2] the target is T1, hGCGR (Homo sapiens, UniProt P47871).
T1 construct: expressed in transfected cells
Description: Functional cAMP formation (HTRF) in HEK-293 clonal cells expressing hGCGR, 0.1% bovine casein, without or with 1.0% human serum albumin. Summed up: as §1

Assay [3] has as its target T2, hGIPR (Homo sapiens, UniProt P48546).
T2 construct: expressed in transfected cells
T2 sequence (P48546 22-466): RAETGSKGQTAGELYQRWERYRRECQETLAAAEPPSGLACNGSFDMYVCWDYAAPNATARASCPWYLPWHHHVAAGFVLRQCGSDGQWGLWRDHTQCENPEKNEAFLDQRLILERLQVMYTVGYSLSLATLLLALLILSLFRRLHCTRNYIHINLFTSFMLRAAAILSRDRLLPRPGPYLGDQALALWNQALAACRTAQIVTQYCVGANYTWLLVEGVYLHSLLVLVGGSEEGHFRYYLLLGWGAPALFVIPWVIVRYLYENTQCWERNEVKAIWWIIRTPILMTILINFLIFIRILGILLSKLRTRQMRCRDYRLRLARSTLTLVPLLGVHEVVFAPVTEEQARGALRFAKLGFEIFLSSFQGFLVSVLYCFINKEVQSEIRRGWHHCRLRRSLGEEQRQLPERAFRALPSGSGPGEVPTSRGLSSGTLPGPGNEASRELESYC
Description: Functional cAMP formation (HTRF) in HEK-293 clonal cells expressing hGIPR, 0.1% bovine casein, without or with 1.0% human serum albumin. Particulars: for EC50: geometric mean. Summed up: as §1

Setting [4] is: 0.1% bovine casein and 1.0% human serum albumin, 37° C., geometric mean, read-out: hGCGR EC50, nM (SEM, n).
The mark [5] stands for this setting: cAMP, incubated at 37° C., 0.1% bovine casein (no human serum albumin), geometric mean, read-out: hGCGR EC50, nM (SEM, n).
The mark [6] stands for this setting: HEK293, 0.1% bovine casein and 1.0% human serum albumin, 37° C., percent of maximal response to GIP(1-42)NH2, read-out: hGIPR Emax, % ± SEM.
[7] abbreviates: HEK293, percent of maximal response to GIP(1-42)NH2, 37° C., 0.1% bovine casein, arithmetic mean, read-out: hGIPR Emax, % ± SEM.
Setting [8] is: hGLP-1R EC50, nM (SEM, n), cAMP, 0.1% bovine casein (no human serum albumin), geometric mean.
The mark [9] stands for this setting: hGCGR EC50, nM (SEM, n), cAMP, 37° C., 0.1% bovine casein (no human serum albumin), geometric mean.
Setting [10] is: hGCGR EC50, nM (SEM, n), cAMP, 37° C., 0.1% bovine casein and 1.0% human serum albumin, geometric mean (SEM, n).
[11] abbreviates: HEK293, read-out: hGIPR Emax, % ± SEM, cAMP, 37° C., 0.1% bovine casein and 1.0% human serum albumin, percent of maximal response to GIP(1-42)NH2.
The mark [12] stands for this setting: hGIPR EC50, nM (SEM, n), cAMP, 37° C., 0.1% bovine casein (no human serum albumin).

T1 sequence (P47871 26-477): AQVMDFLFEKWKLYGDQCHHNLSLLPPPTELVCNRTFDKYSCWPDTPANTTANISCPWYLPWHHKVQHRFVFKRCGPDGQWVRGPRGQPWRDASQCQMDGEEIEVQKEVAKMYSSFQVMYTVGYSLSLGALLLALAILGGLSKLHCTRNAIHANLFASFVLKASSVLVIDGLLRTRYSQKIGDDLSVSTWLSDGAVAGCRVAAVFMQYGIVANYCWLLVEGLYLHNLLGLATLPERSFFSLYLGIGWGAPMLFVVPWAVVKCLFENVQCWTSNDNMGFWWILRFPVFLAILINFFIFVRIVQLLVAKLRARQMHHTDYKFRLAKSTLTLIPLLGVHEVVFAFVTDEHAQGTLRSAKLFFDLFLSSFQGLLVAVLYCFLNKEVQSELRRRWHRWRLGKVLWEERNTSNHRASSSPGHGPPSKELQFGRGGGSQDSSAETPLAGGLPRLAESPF
Chain of hGLP-1R (P43220 24-463): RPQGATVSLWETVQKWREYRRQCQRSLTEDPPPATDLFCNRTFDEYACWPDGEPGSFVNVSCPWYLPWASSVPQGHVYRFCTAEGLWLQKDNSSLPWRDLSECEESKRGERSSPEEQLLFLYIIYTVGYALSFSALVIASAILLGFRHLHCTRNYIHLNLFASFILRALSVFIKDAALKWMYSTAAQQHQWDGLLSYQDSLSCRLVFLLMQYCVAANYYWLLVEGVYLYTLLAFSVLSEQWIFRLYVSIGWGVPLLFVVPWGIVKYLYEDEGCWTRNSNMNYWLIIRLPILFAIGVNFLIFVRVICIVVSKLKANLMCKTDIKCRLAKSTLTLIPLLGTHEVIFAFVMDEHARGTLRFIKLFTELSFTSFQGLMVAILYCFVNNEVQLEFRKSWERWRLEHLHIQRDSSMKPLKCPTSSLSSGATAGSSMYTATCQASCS

For the compound `CC[C@H](C)[C@H](NC(=O)[C@H](CC(C)C)NC(=O)[C@](C)(Cc1ccc(O)cc1)NC(=O)[C@@H](CCC(=O)O)NC(=O)[C@@H](NC(=O)[C@H](Cc1ccccc1)NC(=O)[C@H](CCC(=O)O)NC(=O)C(C)(C)NC(=O)[C@H](CCC(N)=O)NC(=O)[C@H](C)NC(=O)[C@H](CCCCNC(=O)COCCOCCNC(=O)COCCOCCNC(=O)CCCCCCCCCCCCC(=O)O)NC(=O)[C@H](CCCN)NC(=O)[C@H](CC(=O)O)NC(=O)[C@H](CC(C)C)NC(=O)[C@](C)(CC(C)C)NC(=O)[C@@H](NC(=O)[C@H](CO)NC(=O)[C@H](Cc1ccncc1)NC(=O)[C@H](CC(=O)O)NC(=O)[C@H](CO)NC(=O)[C@@H](NC(=O)[C@](C)(Cc1ccccc1F)NC(=O)[C@@H](NC(=O)CNC(=O)[C@H](CCC(=O)O)NC(=O)C(C)(C)NC(=O)[C@@H](N)Cc1ccc(O)cc1)[C@@H](C)O)[C@@H](C)O)[C@@H](C)CC)[C@@H](C)CC)C(=O)N[C@@H](CCC(=O)O)C(=O)NCC(=O)NCC(=O)N[C@@H](CCCCNC(=O)COCCOCCNC(=O)COCCOCCNC(=O)CCCCCCCCCCCCC(=O)O)C(=O)N[C@@H](CO)C(=O)N[C@@H](CO)C(=O)NCC(=O)N[C@@H](C)C(=O)N1CCC[C@H]1C(=O)N1CCC[C@H]1C(=O)N1CCC[C@H]1C(=O)N[C@@H](CO)C(N)=O` [Example 9], the concentration giving a half-maximal response (EC50) in assay [1] (0.1% bovine casein and 1.0% human serum albumin, geometric mean, read-out: hGLP-1R EC50, nM (SEM, n)) was 8.82 nM; in assay [2] (setting [4]) it was greater than 9950 nM; in assay [2] (setting [5]), greater than 9950 nM; in assay [3] (0.1% bovine casein and 1.0% human serum albumin, 37° C., read-out: hGIPR EC50, nM (SEM, n)), 0.211 nM; in assay [3] (cAMP, incubated at 37° C., 0.1% bovine casein (no human serum albumin), read-out: hGIPR EC50, nM (SEM, n)), 0.0102 nM. In addition, the Emax in assay [3] (setting [6]) stood at 91.6 ± 4.63%; in assay [3] (setting [7]), 93.6 ± 2.36%.
On to `CC[C@H](C)[C@H](NC(=O)[C@H](CC(C)C)NC(=O)[C@](C)(Cc1ccc(O)cc1)NC(=O)[C@@H](CCC(=O)O)NC(=O)[C@@H](NC(=O)[C@H](Cc1ccccc1)NC(=O)[C@H](CCC(=O)O)NC(=O)C(C)(C)NC(=O)[C@H](CCC(N)=O)NC(=O)[C@H](C)NC(=O)[C@H](CCCCNC(=O)COCCOCCNC(=O)COCCOCCNC(=O)CC[C@H](NC(=O)CCCCCCCCCOc1ccc(C(=O)O)cc1)C(=O)O)NC(=O)[C@H](CCCN)NC(=O)[C@H](CC(=O)O)NC(=O)[C@H](CC(C)C)NC(=O)[C@](C)(CC(C)C)NC(=O)[C@@H](NC(=O)[C@H](CO)NC(=O)[C@H](CCc1ccc(O)cc1)NC(=O)[C@H](CC(=O)O)NC(=O)[C@H](CO)NC(=O)[C@@H](NC(=O)[C@](C)(Cc1ccccc1F)NC(=O)[C@@H](NC(=O)CNC(=O)[C@H](CCC(=O)O)NC(=O)C(C)(C)NC(=O)[C@@H](N)Cc1ccc(O)cc1)[C@@H](C)O)[C@@H](C)O)[C@@H](C)CC)[C@@H](C)CC)C(=O)N[C@@H](CCCCNC(=O)COCCOCCNC(=O)COCCOCCNC(=O)CC[C@H](NC(=O)CCCCCCCCCOc1ccc(C(=O)O)cc1)C(=O)O)C(=O)NCC(=O)NCC(=O)N1CCC[C@H]1C(=O)N[C@@H](CO)C(=O)N[C@@H](CO)C(=O)NCC(=O)N[C@@H](C)C(=O)N1CCC[C@H]1C(=O)N1CCC[C@H]1C(=O)N1CCC[C@H]1C(=O)N[C@@H](CO)C(N)=O` [Example 327], for which the EC50 is 0.211 nM in assay [1] (setting [8]); 13.6 nM in assay [1] (hGLP-1R EC50, nM (SEM, n), cAMP, 0.1% bovine casein and 1.0% human serum albumin, geometric mean (SEM, n)); greater than 9950 nM in assay [2] (setting [9]); greater than 9950 nM in assay [2] (setting [10]); 0.018 nM in assay [3] (setting [12]). Further, the Emax in assay [3] (setting [11]) amounted to 90.2%.
With `CC[C@H](C)[C@H](NC(=O)[C@H](CCCN)NC(=O)[C@H](CC(=O)O)NC(=O)[C@H](CC(C)C)NC(=O)[C@](C)(CC(C)C)NC(=O)[C@@H](NC(=O)C(C)(C)NC(=O)[C@@H](NC(=O)[C@H](CC(=O)O)NC(=O)[C@H](CO)NC(=O)[C@@H](NC(=O)[C@](C)(Cc1ccccc1F)NC(=O)[C@@H](NC(=O)CNC(=O)[C@H](CCC(=O)O)NC(=O)C(C)(C)NC(=O)[C@@H](N)Cc1ccc(O)cc1)[C@@H](C)O)[C@@H](C)O)C(C)C)[C@@H](C)CC)C(=O)N[C@@H](C)C(=O)N[C@@H](CCC(N)=O)C(=O)NC(C)(C)C(=O)N[C@@H](CCC(=O)O)C(=O)N[C@@H](Cc1ccccc1)C(=O)N[C@H](C(=O)N[C@@H](CCCCNC(=O)COCCOCCNC(=O)COCCOCCNC(=O)COCCOCCNC(=O)CC[C@H](NC(=O)CCCCCCCCCOc1ccc(C(=O)O)cc1)C(=O)O)C(=O)N[C@@](C)(Cc1ccc(O)cc1)C(=O)N[C@@H](CC(C)C)C(=O)N[C@H](C(=O)N[C@@H](CCCCNC(=O)COCCOCCNC(=O)COCCOCCNC(=O)COCCOCCNC(=O)CC[C@H](NC(=O)CCCCCCCCCOc1ccc(C(=O)O)cc1)C(=O)O)C(=O)NCC(=O)NCC(=O)N1CCC[C@H]1C(=O)N[C@@H](CO)C(=O)N[C@@H](CO)C(=O)NCC(=O)N[C@@H](C)C(=O)N1CCC[C@H]1C(=O)N1CCC[C@H]1C(=O)N1CCC[C@H]1C(=O)N[C@@H](CO)C(N)=O)[C@@H](C)CC)[C@@H](C)CC` [Example 347], the EC50 is 0.356 nM in assay [1] (setting [8]), greater than 9950 nM in assay [2] (setting [9]), greater than 9950 nM in assay [2] (setting [10]) and 0.0259 nM in assay [3] (setting [12]). Besides, the maximal effect (Emax) came out at 84.6% in assay [3] (setting [11]) and 98% in assay [3] (HEK293, read-out: hGIPR Emax, % ± SEM, cAMP, 37° C., 0.1% bovine casein, percent of maximal response to GIP(1-42)NH2, arithmetic mean).
In the case of `CC[C@H](C)[C@H](NC(=O)[C@H](CC(C)C)NC(=O)[C@](C)(Cc1ccc(O)cc1)NC(=O)[C@@H](CCC(=O)O)NC(=O)[C@@H](NC(=O)[C@](C)(Cc1ccccc1)NC(=O)[C@H](CCC(=O)O)NC(=O)C(C)(C)NC(=O)[C@H](CCC(N)=O)NC(=O)[C@H](C)NC(=O)[C@H](CCCCNC(=O)COCCOCCNC(=O)COCCOCCNC(=O)CC[C@H](NC(=O)CCCCCCCCCCCCC(=O)O)C(=O)O)NC(=O)[C@H](CCCN)NC(=O)[C@H](CC(=O)O)NC(=O)[C@H](CC(C)C)NC(=O)[C@](C)(CC(C)C)NC(=O)[C@@H](NC(=O)C(C)(C)NC(=O)[C@@H](NC(=O)[C@H](CC(=O)O)NC(=O)[C@H](CO)NC(=O)[C@@H](NC(=O)[C@](C)(Cc1ccccc1F)NC(=O)[C@@H](NC(=O)CNC(=O)[C@H](CCC(=O)O)NC(=O)C(C)(C)NC(=O)[C@@H](N)Cc1ccc(O)cc1)[C@@H](C)O)[C@@H](C)O)C(C)C)[C@@H](C)CC)[C@@H](C)CC)C(=O)N[C@@H](CCC(=O)O)C(=O)NCC(=O)NCC(=O)N[C@@H](CCCCNC(=O)COCCOCCNC(=O)COCCOCCNC(=O)CC[C@H](NC(=O)CCCCCCCCCCCCC(=O)O)C(=O)O)C(=O)N[C@@H](CO)C(=O)N[C@@H](CO)C(=O)NCC(=O)N[C@@H](C)C(=O)N1CCC[C@H]1C(=O)N1CCC[C@H]1C(=O)N1CCC[C@H]1C(=O)N[C@@H](CO)C(N)=O` [Example 93], the maximal effect (Emax) in assay [1] (HEK293, 0.1% bovine casein and 1.0% human serum albumin, percent of maximal response to GLP-1(7-36)NH2, read-out: hGLP-1R Emax, % ± SEM) stood at 90.2%; in assay [3] (setting [6]), 92%; in assay [3] (setting [7]) it was 99.4 ± 6.93%. The half-maximal effective concentration (EC50) in assay [2] (setting [4]) and in assay [2] (setting [5]) was greater than 9950 nM throughout.

The EC50 is the concentration at which the effect is half-maximal. The Emax is the maximal effect, on the per cent scale that the assay sets.
